Assay results reported in patent publication US20260034094A1, “COMPOSITIONS AND METHODS FOR INDUCING FERROPTOSIS” (Kojin Therapeutics, Inc., priority 2022, published 2026).
Where “and” joins values, the source holds several entries; their conditions need not be identical. Equal values may be shown once. Read-outs that look alike come from different tables or passages of the source.

Assays:
human recombinant GCL = human recombinant GCL (Homo sapiens (Human), UniProt P48506); assay: GCL enzyme profiling assay (ADP-Glo luminescence); type: biochemical
In short: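 ADP-Glo luminescence readout; 5 nM enzyme preincubated 1 h at 22 °C with 0.6 mM ATP, then started with 1 mM glutamate and 1.2 mM α-aminobutyrate, stopped after 2 h. Buffer: HEPES pH 7.5, MgCl2, DTT, BSA, 0.2% F-127, 1% DMSO. IC50 from four-parameter logistic fit.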

RKN cells = assay: RKN cell profiling assay (cell viability, CellTiter-Glo); type: cell-based; settings: read-out: Cell Killing EC50
In short: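 Cells seeded at 1,000/well in F-12 with 10% FBS, left to adhere 24 h, then compound-treated for 96 h at 0.5% final DMSO. Viability by CellTiter-Glo luminescence; EC50 from four-parameter logistic fit. Ferroptosis rescue runs included 1.5 μM ferrostatin-1 added at seeding.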

[1] = human recombinant GCL, ADP-Glo, read-out: GCL IC50
[2] = human recombinant GCL 5 nM, 1 h preincubation with ATP, read-out: GCL IC50

Sequence of human recombinant GCL (P48506 whole entry): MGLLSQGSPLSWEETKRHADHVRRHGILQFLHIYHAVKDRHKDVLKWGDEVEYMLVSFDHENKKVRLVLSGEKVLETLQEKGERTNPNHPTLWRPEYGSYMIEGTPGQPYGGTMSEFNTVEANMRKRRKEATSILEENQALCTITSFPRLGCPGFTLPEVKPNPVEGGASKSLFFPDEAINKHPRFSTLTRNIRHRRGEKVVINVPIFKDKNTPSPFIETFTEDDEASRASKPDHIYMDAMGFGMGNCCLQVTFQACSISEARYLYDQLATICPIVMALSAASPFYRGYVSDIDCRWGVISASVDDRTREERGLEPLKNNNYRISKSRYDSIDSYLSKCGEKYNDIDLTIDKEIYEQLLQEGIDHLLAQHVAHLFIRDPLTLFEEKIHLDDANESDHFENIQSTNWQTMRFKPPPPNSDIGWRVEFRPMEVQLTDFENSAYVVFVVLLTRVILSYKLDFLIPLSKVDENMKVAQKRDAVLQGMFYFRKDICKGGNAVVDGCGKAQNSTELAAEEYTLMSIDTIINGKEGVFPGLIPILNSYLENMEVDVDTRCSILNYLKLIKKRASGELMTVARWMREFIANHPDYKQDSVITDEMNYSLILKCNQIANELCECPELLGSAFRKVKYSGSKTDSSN

SMILES	IC50 (human recombinant GCL; [1])	EC50 (RKN cells; cell viability)	IC50 (human recombinant GCL; [2])	EC50 (RKN cells; 96 h, 96 h exposure)	other results
N[C@@H](CCSCCC(O)(c1ncc(-c2ccc(Cl)cc2Cl)cn1)C(F)(F)F)C(=O)O (some centres unmarked) [Compound 469]	0.02 to 2 mM	≥ 1000 µM			
N=S(=O)(CCC(c1ccc(S(=O)(=O)c2ccccc2)cc1)C(F)(F)F)CC[C@H](N)C(=O)O (stereo partly drawn) [Compound 216, (2S)-2-amino-4-(4,4,4-trifluoro-3-(4-(phenylsulfonyl)phenyl)butylsulfonimidoyl) butanoic acid]	0.02 to 2 mM	≥ 1000 µM			
N=[S@](=O)(CC[C@H](c1ccccc1)C(F)(F)F)CC[C@H](N)C(=O)O [Compound 60]			≤ 0.02 mM	< 1000 µM	
N=S(=O)(CC[C@H](N)C(=O)O)CCC(O)(c1nccs1)C(F)(F)F (some centres unmarked) [Compound 344]	≤ 0.02 mM	< 1000 µM			
N=S(=O)(CC[C@H](N)C(=O)O)CCC(c1ccc(-c2ccc(Cl)cc2Cl)cc1)(C(F)(F)F)C(F)(F)F (some centres unmarked) [compound 510]	≤ 0.02 mM	≥ 1000 µM			
CCCCOC(=O)[C@@H](N)CCS(=N)(=O)CCc1cccc(F)c1C(F)(F)F (some centres unmarked) [Compound 92]			0.02 to 2 mM	< 1000 µM	
CC1(CCS(=N)(=O)CC[C@H](N)C(=O)O)COC1 (some centres unmarked) [Compound 185]			0.02 to 2 mM		EC50 (RKN cells; 96 h exposure): ≥ 1000 µM
CCOC(=O)[C@@H](N)CC[S@@](=N)(=O)CC[C@@H](O)C(F)(F)F [Compound 486, ethyl (S)-2-amino-4-((R,3R)-4,4,4-trifluoro-3-hydroxybutylsulfonimidoyl)butanoate]	0.02 to 2 mM	< 1000 µM			
COC(=O)[C@@H](N)CCS(=N)(=O)CCc1ccccc1 (stereo partly drawn) [Compound 68, (2S)-methyl 2-amino-4-(2-phenylethylsulfonimidoyl)butanoate]			0.02 to 2 mM	≥ 1000 µM	
COCCCS(=N)(=O)CC[C@H](N)C(=O)OC (some centres unmarked) [Compound 75]			> 2 mM and 0.02 to 2 mM	≥ 1000 µM	IC50 (human recombinant GCL; human recombinant GCL 5 nM, 1 h preincubation with ATP, read-out: GCL IC50 (mM), individual values in parentheses): 2.35 mM and 0.594 mM
Cc1cc(F)ccc1-c1cnc(C(O)(CCS(=N)(=O)CC[C@H](N)C(=O)O)C(F)(F)F)nc1 (some centres unmarked) [Compound 473]	0.02 to 2 mM	< 1000 µM			
CC(=O)Nc1ccc(C(O)(CCS(=N)(=O)CC[C@H](N)C(=O)O)C(F)(F)F)cc1 (some centres unmarked) [compound 506]	0.02 to 2 mM	< 1000 µM			
N=S(=O)(CCC(C1CCCC1)C(F)(F)F)CC[C@H](N)C(=O)O (some centres unmarked) [Compound 382]	≤ 0.02 mM	≥ 1000 µM			
CC(C)(C)CCS1(=O)=NC(=O)[C@@H](N)CC1 (stereo partly drawn) [Compound 201, (1S,4R)-4-amino-1-(3,3-dimethylbutyl)-5,6-dihydro-1,2-thiazin-3 (4H)-one 1-oxide]			0.02 to 2 mM	< 1000 µM	
N=S(=O)(CCC(C(F)(F)F)C12CC(C1)C2)CC[C@H](N)C(=O)O (some centres unmarked) [Compound 384]	≤ 0.02 mM	≥ 1000 µM			
N[C@@H](CCS(=O)(=O)CCC1(C(F)(F)F)OC(=O)c2ccccc21)C(=O)O (some centres unmarked) [compound 512]	> 2 mM	≥ 1000 µM			
N#Cc1cccc(-c2ccc(C(CCS(=N)(=O)CC[C@H](N)C(=O)O)C(F)(F)F)cc2)c1F (some centres unmarked) [Compound 240]	≤ 0.02 mM	≥ 1000 µM			
N=S(=O)(CCc1cccc(F)c1F)CC[C@H](N)C(=O)O (some centres unmarked) [Compound 16]			≤ 0.02 mM	< 1000 µM	
N#CC1(CCS(=N)(=O)CC[C@H](N)C(=O)O)CC1 (some centres unmarked) [Compound 151]			0.02 to 2 mM	≥ 1000 µM	
N[C@@H](CCS(=O)(=O)NCC(O)(c1ccc(-c2ccc(Cl)cc2Cl)cn1)C(F)(F)F)C(=O)O (stereo partly drawn) [Compound 513, (2S)-2-amino-4-(N-(2-(5-(2,4-dichlorophenyl)pyridin-2-yl)-3,3,3-trifluoro-2-hydroxypropyl)sulfamoyl)butanoic acid]	≤ 0.02 mM	≥ 1000 µM			
N=S(=O)(CCC1C2CC3CC(C2)CC1C3)CC[C@H](N)C(=O)O (some centres unmarked) [Compound 143]			0.02 to 2 mM	≥ 1000 µM	
CCCCS(=N)(=O)CC[C@H](NC(=O)OC)C(=O)OC (stereo partly drawn) [Compound 198, (2S)-methyl 4-(butylsulfonimidoyl)-2-((methoxycarbonyl)amino)butanoate]			> 2 mM	≥ 1000 µM	
CC(C)(C)CCS(=N)(=O)CC[C@H](N)C(=O)Nc1cccnc1 (stereo partly drawn) [Compound 101, (2S)-2-amino-4-(3,3-dimethylbutylsulfonimidoyl)-N-(pyridin-3-yl)butanamide]			> 2 mM	< 1000 µM	
N=S(=O)(CC[C@H](N)C(=O)O)CCC(O)(c1ccc(C(F)(F)F)nc1)C(F)(F)F (some centres unmarked) [Compound 365]	0.02 to 2 mM	≥ 1000 µM			
N=S(=O)(CCc1cccc2ccccc12)CC[C@H](N)C(=O)O (some centres unmarked) [Compound 31]			≤ 0.02 mM	≥ 1000 µM	
Cc1cccc(CCS(=N)(=O)CC[C@H](N)C(=O)O)c1C (some centres unmarked) [Compound 27]			0.02 to 2 mM	≥ 1000 µM	
CC(C)(C)CCS(=N)(=O)CC[C@H](N)C(=O)N1CCCC1 (some centres unmarked) [Compound 116]			> 2 mM	≥ 1000 µM	

SMILES	IC50 (human recombinant GCL; [1])	EC50 (RKN cells; cell viability)	IC50 (human recombinant GCL; [2])	EC50 (RKN cells; 96 h, 96 h exposure)	other results
COC(=O)[C@@H](N)CCS(=N)(=O)CCCC1CC1 (stereo partly drawn) [Compound 71, (2S)-methyl 2-amino-4-(3-cyclopropylpropylsulfonimidoyl)butanoate]			0.02 to 2 mM	≥ 1000 µM	
COC(C)(C)CCS(=N)(=O)CC[C@H](N)C(=O)O (some centres unmarked) [Compound 158]			0.02 to 2 mM	< 1000 µM	
N=S(=O)(CCCc1ccccc1)CC[C@H](N)C(=O)O (some centres unmarked) [Compound 51]			0.02 to 2 mM	≥ 1000 µM	
N=S(=O)(CC[C@H](N)C(=O)O)CCC1(NC(N)=O)CCC1 (stereo partly drawn) [Compound 206, (2S)-2-amino-4-(2-(1-ureidocyclobutyl)ethylsulfonimidoyl)butanoic acid]			0.02 to 2 mM	< 1000 µM	
CC(C)(C)CCS(=N)(=O)CC[C@H](N)C(=O)NS(C)(=O)=O (some centres unmarked) [Compound 111]			0.02 to 2 mM	≥ 1000 µM	
N=S(=O)(CC[C@H](N)C(=O)O)CCC(O)(c1ccc(C2CCCC2)cn1)C(F)(F)F (stereo partly drawn) [Compound 461, (2S)-2-amino-4-(3-(5-cyclopentylpyridin-2-yl)-4,4,4-trifluoro-3-hydroxybutylsulfonimidoyl)butanoic acid]	≤ 0.02 mM	< 1000 µM			
N=S(=O)(CCc1cccc(Cl)c1Cl)CC[C@H](N)C(=O)O (some centres unmarked) [Compound 25]			0.02 to 2 mM	≥ 1000 µM	
N=S(=O)(CCc1cnoc1)CC[C@H](N)C(=O)O (some centres unmarked) [Compound 9]			0.02 to 2 mM	< 1000 µM	
N=S(=O)(C/C=C(\CC(F)(F)F)c1ccc(-c2ccc(Cl)cc2Cl)cc1)CC[C@H](N)C(=O)O (stereo partly drawn) [Compound 495, (2S)-2-amino-4-((E)-3-(2′, 4′-dichloro-[1, 1′-biphenyl]-4-yl)-5,5,5-trifluoropent-2-en-1-ylsulfonimidoyl) butanoic acid]	0.02 to 2 mM	≥ 1000 µM			
N=S(=O)(CC[C@H](N)C(=O)O)CCC(O)(c1ccc(-c2cccc3ccccc23)cc1)C(F)(F)F (some centres unmarked) [Compound 444]	≤ 0.02 mM	< 1000 µM			
N=[S@SP2](=O)(CCC(N)C(=O)O)CCC(O)(c1ccc(N[S@SP3](=O)(=O)c2ccccc2)cc1)C(F)(F)F (centres unmarked) [compound 507]	≤ 0.02 mM	≥ 1000 µM			
N=S(=O)(CC[C@H](N)C(=O)O)CCC1(c2ccccn2)CCC1 (stereo partly drawn) [Compound 387, (2S)-2-amino-4-(2-(1-(pyridin-2-yl)cyclobutyl)ethylsulfonimidoyl)butanoic acid]	0.02 to 2 mM	< 1000 µM			
CNC(=O)C1(CCS(=N)(=O)CC[C@H](N)C(=O)O)CCC1 (some centres unmarked) [Compound 192]			0.02 to 2 mM	≥ 1000 µM	
N=[S@@](=O)(CC[C@H](N)C(=O)O)CCC1(CO)CCC1 [compound 515]	≤ 0.02 mM	< 1000 µM			
N=S(=O)(CC[C@H](N)C(=O)O)CCC(O)(c1ccc(C(F)(F)F)cc1)C(F)(F)F (some centres unmarked) [Compound 338]	≤ 0.02 mM	≥ 1000 µM			
CC(C)OC(=O)[C@@H](N)CCS(=N)(=O)CCCC(F)(F)F (some centres unmarked) [Compound 88]			0.02 to 2 mM	< 1000 µM	
N=S(=O)(CCC(c1ccc(S(=O)(=O)Nc2ccccc2)cc1)C(F)(F)F)CC[C@H](N)C(=O)O (some centres unmarked) [compound 499]	≤ 0.02 mM	≥ 1000 µM			
Cc1ccc(-c2ccc(C(O)(CCS(=N)(=O)CC[C@H](N)C(=O)O)C(F)(F)F)cc2C#N)cc1 (some centres unmarked) [Compound 452]	≤ 0.02 mM	≥ 1000 µM			
N=S(=O)(CC[C@H](N)C(=O)O)CCC(O)(C1CC1)C(F)(F)F (stereo partly drawn) [Compound 349, (2S)-2-amino-4-(3-cyclopropyl-4,4,4-trifluoro-3-hydroxybutylsulfonimidoyl)butanoic acid]	0.02 to 2 mM	< 1000 µM			
N=S(=O)(CC[C@H](N)C(=O)O)CCC1(C(F)(F)F)CCC1 (some centres unmarked) [Compound 296]	≤ 0.02 mM	< 1000 µM			
N=S(=O)(CCc1ccccc1F)CC[C@H](N)C(=O)O (some centres unmarked) [Compound 23]			0.02 to 2 mM	≥ 1000 µM	
CC(C)(CCS(=N)(=O)CC[C@H](N)C(=O)O)Cc1ccccc1 (some centres unmarked) [Compound 65]			≤ 0.02 mM	≥ 1000 µM	
N=S(=O)(CC[C@H](N)C(=O)O)CCC1(F)CCC1 (some centres unmarked) [Compound 173]			0.02 to 2 mM	< 1000 µM	
COc1ccccc1C(CCS(=N)(=O)CC[C@H](N)C(=O)O)C(F)(F)F (some centres unmarked) [Compound 398]	≤ 0.02 mM	< 1000 µM			
N=S(=O)(CC[C@H](N)C(=O)O)CCC(O)(c1ccc(-c2ccc(OC(F)(F)F)cc2O)cc1)C(F)(F)F (some centres unmarked) [Compound 458]	≤ 0.02 mM	< 1000 µM			
N=S(=O)(CCC(n1ccc(C2CC2)n1)C(F)(F)F)CC[C@H](N)C(=O)O (some centres unmarked) [Compound 413]	0.02 to 2 mM	≥ 1000 µM			
